Legend:
Experiment in all cases: MIC by broth microdilution (NCCLS M7-A5)
[1] = test system: Klebsiella pneumoniae CF104
[2] = test system: Serratia marcescens S6
[3] = test system: Enterobacter cloacae P99
[4] = test system: Acinetobacter sp. J2; conditions: Acinetobacter baumannii J2
[5] = test system: Pseudomonas aeruginosa MK1184
[6] = test system: Stenotrophomonas malthophilia 1AC736; conditions: Stenotrophomonas maltophilia 1AC736
[7] = test system: Pseudomonas aeruginosa 1973E
[8] = + 102 + clavulanate, 4 mg/L each
[9] = + 206 + clavulanate, 4 mg/L each
[10] = + 324 + clavulanate, 4 mg/L each
[11] = MIC of antibiotic 1 with the labelled bridged monobactam of formula II and clavulanate, 4 mg/L each

Question: Which results are given for `CC1C(NC(=O)C(=NOCc2cc(=O)c(O)cn2O)c2cccc(N)n2)C(=O)N1S(=O)(=O)O` (stereo not shown) [Compound 20]?
Answer: MIC of antibiotic [1, 8]: 2 µg/mL; MIC of antibiotic [1, 9]: 4 µg/mL; MIC of antibiotic ([1]; + 501 4 mg/L): 16 µg/mL; MIC of antibiotic ([1]; + clavulanate 4 mg/L): 32 µg/mL; MIC of antibiotic ([1]; antibiotic alone): >32 µg/mL; MIC of antibiotic [2, 8]: 0.5 µg/mL; MIC of antibiotic [2, 9]: 0.5 µg/mL; MIC of antibiotic ([2]; + 501 4 mg/L): 2 µg/mL; MIC of antibiotic ([2]; + clavulanate 4 mg/L): 2 µg/mL; MIC of antibiotic ([2]; antibiotic alone): 4 µg/mL; MIC of antibiotic [3, 8]: 16 µg/mL; MIC of antibiotic [3, 9]: 16 µg/mL; MIC of antibiotic ([3]; + 501 4 mg/L): >32 µg/mL; MIC of antibiotic ([3]; + clavulanate 4 mg/L): >32 µg/mL; MIC of antibiotic ([3]; antibiotic alone): >32 µg/mL; MIC of antibiotic [4, 8]: >32 µg/mL; MIC of antibiotic [4, 9]: >32 µg/mL; MIC of antibiotic ([4]; + 501 4 mg/L): <0.06 µg/mL; MIC of antibiotic ([4]; + clavulanate 4 mg/L): >32 µg/mL; MIC of antibiotic ([4]; antibiotic alone): >32 µg/mL; MIC of antibiotic [5, 8]: 8 µg/mL; MIC of antibiotic [5, 9]: >32 µg/mL; MIC of antibiotic ([5]; + 501 4 mg/L): >32 µg/mL; MIC of antibiotic ([5]; + clavulanate 4 mg/L): >32 µg/mL; MIC of antibiotic ([5]; antibiotic alone): >32 µg/mL; MIC of antibiotic [6, 8]: 0.25 µg/mL; MIC of antibiotic [6, 9]: 0.5 µg/mL; MIC of antibiotic ([6]; + 501 4 mg/L): 0.25 µg/mL; MIC of antibiotic ([6]; + clavulanate 4 mg/L): 0.25 µg/mL; MIC of antibiotic ([6]; antibiotic alone): 4 µg/mL; MIC of antibiotic [7, 8]: 32 µg/mL; MIC of antibiotic [7, 9]: 16 µg/mL; MIC of antibiotic ([7]; + 501 4 mg/L): 16 µg/mL; MIC of antibiotic ([7]; + clavulanate 4 mg/L): 16 µg/mL; MIC of antibiotic ([7]; antibiotic alone): 16 µg/mL

Question: Which MIC of antibiotic [1, 8] does the source give for `CC1C(NC(=O)C(=NOCc2cc(=O)c(O)cn2O)c2noc(N)n2)C(=O)N1S(=O)(=O)O` (stereo not shown) [Compound 16] here?
Answer: Its MIC of antibiotic is 32 µg/mL.

Question: What about the MIC of antibiotic ([1]; antibiotic alone) of the same compound?
Answer: Its MIC of antibiotic is over 32 µg/mL.

Question: What about the MIC of antibiotic [2, 8] of the same compound?
Answer: Its MIC of antibiotic is over 32 µg/mL.

Question: And the MIC of antibiotic ([2]; antibiotic alone)?
Answer: Its MIC of antibiotic is over 32 µg/mL.

Question: What about the MIC of antibiotic [3, 8] of the same compound?
Answer: Its MIC of antibiotic is over 32 µg/mL.

Question: What about the MIC of antibiotic ([3]; antibiotic alone) of the same compound?
Answer: Its MIC of antibiotic is over 32 µg/mL.

Question: What about the MIC of antibiotic [4, 8] of the same compound?
Answer: Its MIC of antibiotic is 16 µg/mL.

Question: What about the MIC of antibiotic ([4]; antibiotic alone) of the same compound?
Answer: The MIC of antibiotic was over 32 µg/mL.

Question: And the MIC of antibiotic [5, 8]?
Answer: The MIC of antibiotic was 16 µg/mL.

Question: And the MIC of antibiotic ([5]; antibiotic alone)?
Answer: The MIC of antibiotic was over 32 µg/mL.

Question: And the MIC of antibiotic [6, 8]?
Answer: Its MIC of antibiotic is 2 µg/mL.

Question: What about the MIC of antibiotic ([6]; antibiotic alone) of the same compound?
Answer: Its MIC of antibiotic is over 32 µg/mL.

Question: What about the MIC of antibiotic [7, 8] of the same compound?
Answer: The MIC of antibiotic was 16 µg/mL.

Question: And the MIC of antibiotic ([7]; antibiotic alone)?
Answer: The MIC of antibiotic was over 32 µg/mL.

Question: What does the source list for `NC(=O)OCC1C(NC(=O)C(=NOCc2cc(=O)c(O)cn2O)c2nc(N)sc2Cl)C(=O)N1OS(=O)(=O)O` (stereo not shown) [Compound 47]?
Answer: MIC of antibiotic [1, 8]: 4 µg/mL; MIC of antibiotic [1, 10]: 2 µg/mL; MIC of antibiotic ([1]; antibiotic alone): >32 µg/mL; MIC of antibiotic [2, 8]: 2 µg/mL; MIC of antibiotic [2, 10]: 2 µg/mL; MIC of antibiotic ([2]; antibiotic alone): 2 µg/mL; MIC of antibiotic [3, 8]: 16 µg/mL; MIC of antibiotic [3, 10]: 32 µg/mL; MIC of antibiotic ([3]; antibiotic alone): >32 µg/mL; MIC of antibiotic [4, 8]: >32 µg/mL; MIC of antibiotic [4, 10]: >32 µg/mL; MIC of antibiotic ([4]; antibiotic alone): >32 µg/mL; MIC of antibiotic [5, 8]: 2 µg/mL; MIC of antibiotic [5, 10]: 4 µg/mL; MIC of antibiotic ([5]; antibiotic alone): 4 µg/mL; MIC of antibiotic [6, 8]: 1 µg/mL; MIC of antibiotic [6, 10]: 1 µg/mL; MIC of antibiotic ([6]; antibiotic alone): 1 µg/mL; MIC of antibiotic [7, 8]: 4 µg/mL; MIC of antibiotic [7, 10]: 8 µg/mL; MIC of antibiotic ([7]; antibiotic alone): 8 µg/mL

Question: How did the “MIC of antibiotic at fixed inhibitor concentration (4 mg/L)” value [1, 11] turn out when `Nc1nc(CC(=O)N2CC[C@@H]3[C@H]2C(=O)N3S(=O)(=O)O)cs1` [Compound 401] was run?
Answer: Its value is 35 µg/mL.

Question: And the “MIC of antibiotic at fixed inhibitor concentration (4 mg/L)” value [2, 11]?
Answer: The value was 3.125 µg/mL.

Question: And the “MIC of antibiotic at fixed inhibitor concentration (4 mg/L)” value [7, 11]?
Answer: The value was 3 µg/mL.

From US9346799B2, “Useful combinations of monobactam antibiotics with beta-lactamase inhibitors” (Basilea Pharmaceutica AG, priority 2005, dated 2016)
